Like-named read-outs stand apart in the source and are kept apart here. *1 amine or outer side, *2 acyl side, *3 side chain or, on linkers, in order; H or OH if unused. Where a SMILES comes first, the peptide text is derived from it. Side-chain parts run from the residue outwards. [ ]: non-standard residue; d: D form. The star is where a group is joined. γGlu = O=C(O)[C@H](CCC(=O)[*:2])N[*:1]; Palmitoyl = CCCCCCCCCCCCCCCC(=O)*; Aib = CC(C)(N)C(=O)O
How the values were obtained:
human GLP-1R = human GLP-1R (Homo sapiens, UniProt P43220); test: Peptide-receptor mediated cAMP accumulation (LANCE Ultra cAMP) in CHO-K1 cells transfected with human GLP-1R; assay type: cell-based
Chain of human GLP-1R (P43220 24-463): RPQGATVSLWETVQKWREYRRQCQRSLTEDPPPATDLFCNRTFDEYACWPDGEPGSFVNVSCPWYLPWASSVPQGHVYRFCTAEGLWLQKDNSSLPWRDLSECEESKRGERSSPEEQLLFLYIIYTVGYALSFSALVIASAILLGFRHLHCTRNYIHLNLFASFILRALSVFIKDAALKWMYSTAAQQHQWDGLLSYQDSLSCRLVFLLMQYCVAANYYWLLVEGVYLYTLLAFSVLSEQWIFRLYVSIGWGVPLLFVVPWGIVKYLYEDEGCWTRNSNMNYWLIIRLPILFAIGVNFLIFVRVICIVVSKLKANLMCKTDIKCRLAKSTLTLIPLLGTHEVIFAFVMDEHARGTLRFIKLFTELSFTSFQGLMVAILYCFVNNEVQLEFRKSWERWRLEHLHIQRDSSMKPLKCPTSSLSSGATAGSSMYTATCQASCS

in vivo = details: male, rat
human GCGR = human GCGR (Homo sapiens, UniProt P47871); test: Peptide-receptor mediated cAMP accumulation (LANCE Ultra cAMP) in CHO-K1 cells transfected with human GCGR; assay type: cell-based; details: read-out: GluR pEC50 (converted)
Chain of human GCGR (P47871 26-477): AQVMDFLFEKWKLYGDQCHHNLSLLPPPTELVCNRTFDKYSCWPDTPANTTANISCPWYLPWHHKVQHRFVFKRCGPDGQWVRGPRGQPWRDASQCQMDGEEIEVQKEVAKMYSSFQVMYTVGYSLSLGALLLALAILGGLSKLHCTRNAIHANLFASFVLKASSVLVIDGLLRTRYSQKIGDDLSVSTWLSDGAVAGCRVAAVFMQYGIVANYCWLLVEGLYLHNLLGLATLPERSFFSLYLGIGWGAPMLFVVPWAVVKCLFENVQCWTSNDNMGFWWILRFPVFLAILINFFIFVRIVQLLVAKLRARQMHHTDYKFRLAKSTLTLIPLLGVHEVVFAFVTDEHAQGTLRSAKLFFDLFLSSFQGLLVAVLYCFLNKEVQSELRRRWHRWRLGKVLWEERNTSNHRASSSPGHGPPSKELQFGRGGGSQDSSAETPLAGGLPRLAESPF

[1] = Table 7, GLP-1R, read-out: GLP-1R pEC50 (converted)

| SMILES | EC50 (human GLP-1R; hGLP1 pEC50 (cAMP mean (n = 3): 11 point curve starting at 1 nM, Table 3)) | clearance (in vivo) | EC50 (human GCGR) | EC50 (human GLP-1R; [1]) |
| --- | --- | --- | --- | --- |
| CC(C)C[C@H](NC(=O)[C@H](Cc1ccc(O)cc1)NC(=O)[C@H](CCCCN)NC(=O)[C@H](CO)NC(=O)[C@H](Cc1ccc(O)cc1)NC(=O)[C@H](CC(=O)O)NC(=O)[C@H](CO)NC(=O)[C@@H](NC(=O)[C@H](Cc1ccccc1)NC(=O)[C@@H](NC(=O)CNC(=O)[C@H](Cc1c[nH]cn1)NC(=O)[C@H](CO)NC(=O)[C@@H](N)Cc1ccc(O)cc1)[C@@H](C)O)[C@@H](C)O)C(=O)N[C@@H](CC(=O)O)C(=O)NC(C)(C)C(=O)N[C@@H](CCCCN)C(=O)N[C@@H](CCCNC(=N)N)C(=O)N[C@@H](C)C(=O)N[C@@H](CCC(N)=O)C(=O)N[C@@H](CCC(=O)O)C(=O)N[C@@H](Cc1ccccc1)C(=O)N[C@H](C(=O)NC(C)(C)C(=O)N[C@@H](Cc1c[nH]c2ccccc12)C(=O)N[C@@H](CC(C)C)C(=O)N[C@@H](CCC(=O)O)C(=O)N[C@@H](CC(=O)O)C(=O)N[C@@H](CCC(=O)O)C(=O)N1CCC[C@H]1C(=O)N[C@@H](CO)C(=O)N[C@@H](CO)C(=O)NCC(=O)N[C@@H](C)C(=O)N1CCC[C@H]1C(=O)N1CCC[C@H]1C(=O)N1CCC[C@H]1C(=O)N[C@@H](CO)C(N)=O)C(C)C [Compound A8] (H-YSHGTFTSDYSKYLD[Aib]KRAQEFV[Aib]WLEDEPSSGAPPPS-NH2; N-terminus assumed) | > 1 nM | 17 mL/min/kg |  |  |
| CCCCCCCCCCCCCCCC(=O)N[C@@H](CCC(=O)NCCCC[C@H](NC(=O)[C@@H](NC(=O)[C@H](Cc1ccccc1)NC(=O)[C@H](CCC(=O)O)NC(=O)[C@H](CCC(N)=O)NC(=O)[C@H](C)NC(=O)[C@H](CCCNC(=N)N)NC(=O)[C@H](C)NC(=O)[C@H](C)NC(=O)[C@H](CC(=O)O)NC(=O)[C@H](CC(C)C)NC(=O)[C@H](Cc1ccc(O)cc1)NC(=O)[C@H](CCCCN)NC(=O)[C@H](CO)NC(=O)[C@H](Cc1ccc(O)cc1)NC(=O)[C@H](CC(=O)O)NC(=O)[C@H](CO)NC(=O)[C@@H](NC(=O)[C@H](Cc1ccccc1)NC(=O)[C@@H](NC(=O)CNC(=O)[C@H](CCC(N)=O)NC(=O)[C@H](CO)NC(=O)[C@@H](N)Cc1ccc(O)cc1)[C@@H](C)O)[C@@H](C)O)C(C)C)C(=O)N[C@@H](Cc1c[nH]c2ccccc12)C(=O)N[C@@H](CC(C)C)C(=O)N[C@@H](CCC(=O)O)C(=O)N[C@@H](CC(=O)O)C(=O)N[C@@H](CCC(=O)O)C(=O)N1CCC[C@H]1C(=O)N[C@@H](CCCCN)C(=O)N[C@@H](CO)C(=O)N[C@@H](CCCCN)C(=O)N[C@@H](CO)C(=O)N1CCC[C@H]1C(=O)N1CCC[C@H]1C(=O)N1CCC[C@H]1C(=O)N[C@@H](CO)C(N)=O)C(=O)O [Compound B34] (H-YSQGTFTSDYSKYLDAARAQEFVK([γGlu-Palmitoyl])WLEDEPKSKSPPPS-NH2) |  |  | 0.158 nM | > 1000 nM |
| CCCCCCCCCCCCCCCC(=O)N[C@@H](CCC(=O)NCCCC[C@H](NC(=O)[C@H](CC(=O)O)NC(=O)[C@H](CC(C)C)NC(=O)[C@H](Cc1ccc(O)cc1)NC(=O)[C@H](CCCCN)NC(=O)[C@H](CO)NC(=O)[C@H](Cc1ccc(O)cc1)NC(=O)[C@H](CC(=O)O)NC(=O)[C@H](CO)NC(=O)[C@@H](NC(=O)[C@H](Cc1ccccc1)NC(=O)[C@@H](NC(=O)CNC(=O)[C@H](CCC(N)=O)NC(=O)[C@H](CO)NC(=O)[C@@H](N)Cc1ccc(O)cc1)[C@@H](C)O)[C@@H](C)O)C(=O)N[C@@H](C)C(=O)N[C@@H](CCCNC(=N)N)C(=O)N[C@@H](C)C(=O)N[C@@H](CCC(N)=O)C(=O)N[C@@H](CCC(=O)O)C(=O)N[C@@H](Cc1ccccc1)C(=O)N[C@H](C(=O)N[C@@H](CCCCN)C(=O)N[C@@H](Cc1c[nH]c2ccccc12)C(=O)N[C@@H](CC(C)C)C(=O)N[C@@H](CCC(=O)O)C(=O)N[C@@H](CC(=O)O)C(=O)N[C@@H](CCC(=O)O)C(=O)N1CCC[C@H]1C(=O)N[C@@H](CCCCN)C(=O)N[C@@H](CO)C(=O)N[C@@H](CCCCN)C(=O)N[C@@H](CO)C(=O)N1CCC[C@H]1C(=O)N1CCC[C@H]1C(=O)N1CCC[C@H]1C(=O)N[C@@H](CO)C(N)=O)C(C)C)C(=O)O [Compound B35] (H-YSQGTFTSDYSKYLDK([γGlu-Palmitoyl])ARAQEFVKWLEDEPKSKSPPPS-NH2) |  |  | 0.00794 nM | 251 nM |
| CCCCCCCCCCCCCCCC(=O)N[C@@H](CCC(=O)NCCCC[C@H](NC(=O)[C@H](CC(=O)O)NC(=O)[C@H](CO)NC(=O)[C@@H](NC(=O)[C@H](Cc1ccccc1)NC(=O)[C@@H](NC(=O)CNC(=O)[C@H](CCC(N)=O)NC(=O)[C@H](CO)NC(=O)[C@@H](N)Cc1ccc(O)cc1)[C@@H](C)O)[C@@H](C)O)C(=O)N[C@@H](CO)C(=O)N[C@@H](CCCCN)C(=O)N[C@@H](Cc1ccc(O)cc1)C(=O)N[C@@H](CC(C)C)C(=O)N[C@@H](CC(=O)O)C(=O)N[C@@H](C)C(=O)N[C@@H](C)C(=O)N[C@@H](CCCNC(=N)N)C(=O)N[C@@H](C)C(=O)N[C@@H](CCC(N)=O)C(=O)N[C@@H](CCC(=O)O)C(=O)N[C@@H](Cc1ccccc1)C(=O)N[C@H](C(=O)N[C@@H](CCCCN)C(=O)N[C@@H](Cc1c[nH]c2ccccc12)C(=O)N[C@@H](CC(C)C)C(=O)N[C@@H](CCC(=O)O)C(=O)N[C@@H](CC(=O)O)C(=O)N[C@@H](CCC(=O)O)C(=O)N1CCC[C@H]1C(=O)N[C@@H](CCCCN)C(=O)N[C@@H](CO)C(=O)N[C@@H](CCCCN)C(=O)N[C@@H](CO)C(=O)N1CCC[C@H]1C(=O)N1CCC[C@H]1C(=O)N1CCC[C@H]1C(=O)N[C@@H](CO)C(N)=O)C(C)C)C(=O)O [Compound B36] (H-YSQGTFTSDK([γGlu-Palmitoyl])SKYLDAARAQEFVKWLEDEPKSKSPPPS-NH2) |  |  | 0.00316 nM | 7.94 nM |
| CCCCCCCCCCCCCCCC(=O)N[C@@H](CCC(=O)NCCCC[C@H](NC(=O)[C@@H](NC(=O)[C@H](Cc1ccccc1)NC(=O)[C@H](CCC(=O)O)NC(=O)[C@H](CCC(N)=O)NC(=O)[C@H](C)NC(=O)[C@H](CCCNC(=N)N)NC(=O)[C@H](C)NC(=O)[C@H](CO)NC(=O)[C@H](CC(=O)O)NC(=O)[C@H](CC(C)C)NC(=O)[C@H](Cc1ccc(O)cc1)NC(=O)[C@H](CCCCN)NC(=O)[C@H](CO)NC(=O)[C@H](Cc1ccc(O)cc1)NC(=O)[C@H](CC(=O)O)NC(=O)[C@H](CO)NC(=O)[C@@H](NC(=O)[C@H](Cc1ccccc1)NC(=O)[C@@H](NC(=O)CNC(=O)[C@H](Cc1c[nH]cn1)NC(=O)[C@H](CO)NC(=O)[C@@H](N)Cc1ccc(O)cc1)[C@@H](C)O)[C@@H](C)O)C(C)C)C(=O)N[C@@H](Cc1c[nH]c2ccccc12)C(=O)N[C@@H](CC(C)C)C(=O)N[C@@H](CCC(=O)O)C(=O)N[C@@H](CC(=O)O)C(=O)N[C@@H](CCC(=O)O)C(=O)N1CCC[C@H]1C(=O)N[C@@H](CO)C(=O)N[C@@H](CO)C(=O)NCC(=O)N[C@@H](C)C(=O)N1CCC[C@H]1C(=O)N1CCC[C@H]1C(=O)N1CCC[C@H]1C(=O)N[C@@H](CO)C(N)=O)C(=O)O [Compound B42] (H-YSHGTFTSDYSKYLDSARAQEFVK([γGlu-Palmitoyl])WLEDEPSSGAPPPS-NH2) |  |  | 0.2 nM | > 1000 nM |
| CCCCCCCCCCCCCCCC(=O)N[C@@H](CCC(=O)NCCCC[C@H](NC(=O)[C@H](CC(=O)O)NC(=O)[C@H](CC(C)C)NC(=O)[C@H](Cc1ccc(O)cc1)NC(=O)[C@H](CCCCN)NC(=O)[C@H](CO)NC(=O)[C@H](Cc1ccc(O)cc1)NC(=O)[C@H](CC(=O)O)NC(=O)[C@H](CO)NC(=O)[C@@H](NC(=O)[C@H](Cc1ccccc1)NC(=O)[C@@H](NC(=O)CNC(=O)[C@H](Cc1c[nH]cn1)NC(=O)[C@H](CO)NC(=O)[C@@H](N)Cc1ccc(O)cc1)[C@@H](C)O)[C@@H](C)O)C(=O)N[C@@H](C)C(=O)N[C@@H](CCCNC(=N)N)C(=O)N[C@@H](C)C(=O)N[C@@H](CCC(N)=O)C(=O)N[C@@H](CCC(=O)O)C(=O)N[C@@H](Cc1ccccc1)C(=O)N[C@H](C(=O)N[C@@H](CCCCN)C(=O)N[C@@H](Cc1c[nH]c2ccccc12)C(=O)N[C@@H](CC(C)C)C(=O)N[C@@H](CCC(=O)O)C(=O)N[C@@H](CC(=O)O)C(=O)N[C@@H](CCC(=O)O)C(=O)N1CCC[C@H]1C(=O)N[C@@H](CO)C(=O)N[C@@H](CO)C(=O)NCC(=O)N[C@@H](C)C(=O)N1CCC[C@H]1C(=O)N1CCC[C@H]1C(=O)N1CCC[C@H]1C(=O)N[C@@H](CO)C(N)=O)C(C)C)C(=O)O [Compound B43] |  |  | 0.00794 nM | > 1000 nM |
| CCCCCCCCCCCCCCCC(=O)N[C@@H](CCC(=O)NCCCC[C@H](NC(=O)[C@H](CC(=O)O)NC(=O)[C@H](CO)NC(=O)[C@@H](NC(=O)[C@H](Cc1ccccc1)NC(=O)[C@@H](NC(=O)CNC(=O)[C@H](Cc1c[nH]cn1)NC(=O)[C@H](CO)NC(=O)[C@@H](N)Cc1ccc(O)cc1)[C@@H](C)O)[C@@H](C)O)C(=O)N[C@@H](CO)C(=O)N[C@@H](CCCCN)C(=O)N[C@@H](Cc1ccc(O)cc1)C(=O)N[C@@H](CC(C)C)C(=O)N[C@@H](CC(=O)O)C(=O)N[C@@H](CO)C(=O)N[C@@H](C)C(=O)N[C@@H](CCCNC(=N)N)C(=O)N[C@@H](C)C(=O)N[C@@H](CCC(N)=O)C(=O)N[C@@H](CCC(=O)O)C(=O)N[C@@H](Cc1ccccc1)C(=O)N[C@H](C(=O)N[C@@H](CCCCN)C(=O)N[C@@H](Cc1c[nH]c2ccccc12)C(=O)N[C@@H](CC(C)C)C(=O)N[C@@H](CCC(=O)O)C(=O)N[C@@H](CC(=O)O)C(=O)N[C@@H](CCC(=O)O)C(=O)N1CCC[C@H]1C(=O)N[C@@H](CO)C(=O)N[C@@H](CO)C(=O)NCC(=O)N[C@@H](C)C(=O)N1CCC[C@H]1C(=O)N1CCC[C@H]1C(=O)N1CCC[C@H]1C(=O)N[C@@H](CO)C(N)=O)C(C)C)C(=O)O [Compound B44] (H-YSHGTFTSDK([γGlu-Palmitoyl])SKYLDSARAQEFVKWLEDEPSSGAPPPS-NH2) |  |  | 0.00126 nM | 63.1 nM |

From patent US20240239861A1, “GLUCAGON-RECEPTOR SELECTIVE POLYPEPTIDES AND METHODS OF USE THEREOF” (i2O Therapeutics, Inc., priority 2016, published 2024)
